pIC50: −log10 of the molar value.
Assays:
[1] = biological target: HEK-293 cells transfected with dox-inducible human wild type FGFR2 (Homo sapiens (Human), UniProt P21802); assay: FGFR2 pFGFR cell assay (ELISA); format: cell-based; details: HEK-293 dox-inducible FGFR2, 1 hour compound, 30 ng/ml FGF-acidic
Experimental: (§1) FGFR2 pFGFR Cell Assay: • HEK-293 cells transfected with dox-inducible human wild type FGFR2 (SEQ ID NO: 3) were plated in a collagen or poly-D-lysine coated 96 well flat bottom plates at 4×10^5 cells/well in complete DMEM medium containing 10% FBS and 1 μg/ml doxycycline and allowed to attach for 24 h at 37° C., 5% CO2. Cells were treated with compound using 1:3 serial dilutions with a maximum final concentration of 5 μM. Compound was incubated on cells for 1 hour at 37° C., 5% CO2. Cells were then stimulated with a final concentration of 30 ng/ml human FGF-acidic (R&D Systems Cat number 232-FA/CF) for 5 minutes at 37° C., 5% CO2. Medium was removed and cells were lysed with lysis buffer containing phosphatase and protease inhibitors. Phospho FGFR2 was measured by ELISA (R&D Systems cat. no. DYC684). The ELISA captures total FGFR2 and detects total phospho tyrosine. Optical density was measured for each well using a Versamax reader at a wavelength of 450 nm. 100 POC was determined using no test compounds and 0 POC was determined using a control compound. The POC values were fit to a 4-parameter logistic curve as a function of the concentration of the compound, and the IC50 value is the point where the curve crosses 50 POC.

[2] = biological target: HEK-293 cells transfected with dox-inducible human wild type FGFR1 (Homo sapiens (Human), UniProt P11362); assay: FGFR1 pERK cell assay; format: cell-based; details: HEK-293 dox-inducible FGFR1, 1 hour compound, 100 ng/ml FGF-acidic; maximum concentration 5 μM
Experimental: (§2) FGFR1 pERK Cell Assay: • HEK-293 cells transfected with doxycycline(dox)-inducible human wild type FGFR1 (SEQ ID NO: 1) were plated in a collagen or poly-D-lysine coated 96 well flat bottom plates at 4×10^5 cells/well in complete Dulbecco's Modified Eagle Medium (DMEM) containing 10% FBS and 1 μg/ml doxycycline and allowed to attach for 24 h at 37° C., 5% CO2. Cells were treated with compound using 1:3 serial dilutions with a maximum final concentration of 5 μM. Compound was incubated on cells for 1 hour at 37° C., 5% CO2. Cells were then stimulated with a final concentration of 100 ng/ml human FGF-acidic (R&D Systems Cat number 232-FA/CF) for 5 minutes at 37° C., 5% CO2. Medium was removed, and cells were lysed with lysis buffer containing phosphatase and protease inhibitors. Phospho ERK1/2 was measured using the Meso Scale Discovery sandwich assay (Meso Scale Discovery cat. no. K151DWD). The assay captures phospho ERK1/2 and detects with a sulfo-tagged total ERK1/2 antibody. The chemiluminescent signal was read on the Sector Imager Plate reader. 100 POC was determined using no test compound and 0 POC was determined using a control compound. The POC values were fit to a 4-parameter logistic curve as a function of the concentration of the compound, and the IC50 value is the point where the curve crosses 50 POC.

[3] = biological target: T1, HEK-293 cells transfected with dox-inducible human wild type FGFR3 (Homo sapiens (Human), UniProt P22607); assay: FGFR3 pERK cell assay; format: cell-based; details: HEK-293 dox-inducible FGFR3, 1 hour compound, 100 ng/ml FGF-acidic; maximum concentration 5 μM
Experimental: as §2, with “FGFR3 pERK” for “FGFR1 pERK”, “with dox-inducible” for “with doxycycline(dox)-inducible”, “type FGFR3” for “type FGFR1”, “NO: 5)” for “NO: 1)”, “complete DMEM medium” for “complete Dulbecco's Modified Eagle Medium (DMEM)”, “test compounds” for “test compound”

[4] = biological target: recombinant human FGFR1 catalytic domain (amino acids 308-731) (Homo sapiens (Human), UniProt P11362); assay: FGFR1 enzyme activity assay (LanthaScreen TR-FRET); format: biochemical; details: 20 min incubation at 22° C., average of multiple determinations if made, read-out: FGFR1 Enz FRET IC50
How it was run: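 His-tagged FGFR1 kinase domain with 100 nM Alexa Fluor 647-poly-GT peptide and ATP in pH 7.5 HEPES/MgCl2 buffer with 2% DMSO, 20 min at 22 °C. Quenched with EDTA plus 2 nM Eu-PY20 antibody and read after 60 min. IC50 comes from a 4-parameter fit of percent of control.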

[5] = biological target: recombinant human FGFR3 (amino acids R397-T806) (Homo sapiens (Human), UniProt P22607); assay: FGFR3 enzyme activity assay (LanthaScreen TR-FRET); format: biochemical; details: 25 μM ATP, 10 min incubation at 22° C., average of multiple determinations if made, read-out: FGFR3 Enz FRET IC50
How it was run: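 GST-HIS6-tagged human FGFR3 (R397-T806) was reacted with 100 nM Alexa Fluor 647-Poly-GT substrate and 25 μM ATP plus compound in HEPES/MgCl2/Triton buffer, pH 7.5, 2% DMSO, for 10 min at 22 °C.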

[6] = biological target: FGFR1 (SEQ ID NO: 1, amino acids 458-765) (Homo sapiens (Human), UniProt P11362); assay: LC/MS FGFR1 kobs assay (covalent protein modification); format: binding; details: 500 nM FGFR1, 3 μM compound
How it was run: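 Covalent labeling of FGFR1 kinase domain (aa 458-765) tracked over time by intact-protein LC/MS after formic acid quench. kobs derived by fitting DMSO-normalized percent unmodified FGFR1 to an exponential decay model.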

[7] = biological target: T1, HEK-293 cells transfected with dox-inducible human wild type FGFR3; assay: FGFR3 pFGFR cell assay (ELISA); format: cell-based; details: HEK-293 dox-inducible FGFR3, 1 hour compound, 100 ng/ml FGF-acidic
Experimental: as §1, with “FGFR3” for “FGFR2”, “5)” for “3)”, “top” for “maximum”, “100” for “30”, “FGF-acidic” for “FGF-acidic (R&D Systems Cat number 232-FA/CF)”, “cat DYC2719).” for “cat. no. DYC684).”

[8] = biological target: dephosphorylated FGFR1 (SEQ ID NO: 1, amino acids 458 to 765) (Homo sapiens (Human), UniProt P11362); assay: FGFR enzyme binding assay (HTRF tracer displacement), FGFR1; details: 5 nM dephosphorylated FGFR1, average of multiple determinations if made
How it was run: (§3)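 Compounds were tested for displacement of a tracer from human FGFR kinase in a time-resolved FRET binding format. After 60 minutes at 22° C, signal was read at two wavelengths and converted to percent of control, normalised between untreated wells and 1 μM reference inhibitor.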

[9] = biological target: phosphorylated FGFR3 (SEQ ID NO: 5, amino acids 449 to 759) (Homo sapiens (Human), UniProt P22607); assay: FGFR enzyme binding assay (HTRF tracer displacement), FGFR3; details: 5 nM phosphorylated FGFR3, average of multiple determinations if made
How it was run: as §3

Chain of HEK-293 cells transfected with dox-inducible human wild type FGFR2 (P21802 22-821): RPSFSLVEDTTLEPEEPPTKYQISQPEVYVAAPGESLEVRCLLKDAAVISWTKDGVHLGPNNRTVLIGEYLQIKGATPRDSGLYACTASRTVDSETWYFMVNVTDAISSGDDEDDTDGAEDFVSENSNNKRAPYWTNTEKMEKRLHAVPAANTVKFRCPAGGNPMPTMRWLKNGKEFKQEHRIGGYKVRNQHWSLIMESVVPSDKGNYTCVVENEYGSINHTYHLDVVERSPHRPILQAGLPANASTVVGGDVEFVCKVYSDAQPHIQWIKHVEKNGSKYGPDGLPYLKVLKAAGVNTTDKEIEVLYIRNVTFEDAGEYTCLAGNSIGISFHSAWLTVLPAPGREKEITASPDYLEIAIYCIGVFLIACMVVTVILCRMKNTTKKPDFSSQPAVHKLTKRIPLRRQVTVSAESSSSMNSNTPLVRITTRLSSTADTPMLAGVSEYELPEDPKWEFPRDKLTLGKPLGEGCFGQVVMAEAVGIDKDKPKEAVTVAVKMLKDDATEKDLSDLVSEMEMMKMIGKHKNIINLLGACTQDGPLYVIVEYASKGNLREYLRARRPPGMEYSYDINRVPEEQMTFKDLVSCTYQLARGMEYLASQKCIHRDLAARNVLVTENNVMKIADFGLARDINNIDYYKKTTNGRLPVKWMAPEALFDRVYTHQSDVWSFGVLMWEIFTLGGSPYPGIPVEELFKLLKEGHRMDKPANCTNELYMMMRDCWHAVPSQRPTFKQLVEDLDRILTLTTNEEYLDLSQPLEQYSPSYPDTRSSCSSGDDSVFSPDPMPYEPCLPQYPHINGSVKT
T1 sequence (P22607 23-806): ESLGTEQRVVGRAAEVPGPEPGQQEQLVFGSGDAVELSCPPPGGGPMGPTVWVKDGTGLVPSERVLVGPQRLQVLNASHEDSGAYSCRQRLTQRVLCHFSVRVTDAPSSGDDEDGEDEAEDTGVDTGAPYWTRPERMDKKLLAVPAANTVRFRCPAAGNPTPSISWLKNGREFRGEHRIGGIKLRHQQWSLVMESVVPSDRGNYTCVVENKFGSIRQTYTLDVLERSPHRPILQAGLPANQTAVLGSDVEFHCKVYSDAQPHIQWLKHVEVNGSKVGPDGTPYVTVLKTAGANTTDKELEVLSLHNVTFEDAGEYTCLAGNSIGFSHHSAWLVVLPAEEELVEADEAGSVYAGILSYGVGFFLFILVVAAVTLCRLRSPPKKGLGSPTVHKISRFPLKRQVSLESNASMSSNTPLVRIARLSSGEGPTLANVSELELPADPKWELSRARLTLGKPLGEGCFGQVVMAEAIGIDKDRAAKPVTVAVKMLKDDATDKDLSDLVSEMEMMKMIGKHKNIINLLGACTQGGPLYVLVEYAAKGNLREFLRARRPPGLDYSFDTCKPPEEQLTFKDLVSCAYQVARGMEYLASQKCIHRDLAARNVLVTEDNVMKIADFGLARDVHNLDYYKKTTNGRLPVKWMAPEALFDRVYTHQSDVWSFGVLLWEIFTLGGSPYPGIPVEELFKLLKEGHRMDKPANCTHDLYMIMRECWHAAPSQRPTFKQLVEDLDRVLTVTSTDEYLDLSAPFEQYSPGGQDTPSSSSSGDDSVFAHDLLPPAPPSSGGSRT
Chain of HEK-293 cells transfected with dox-inducible human wild type FGFR1 (P11362 22-822): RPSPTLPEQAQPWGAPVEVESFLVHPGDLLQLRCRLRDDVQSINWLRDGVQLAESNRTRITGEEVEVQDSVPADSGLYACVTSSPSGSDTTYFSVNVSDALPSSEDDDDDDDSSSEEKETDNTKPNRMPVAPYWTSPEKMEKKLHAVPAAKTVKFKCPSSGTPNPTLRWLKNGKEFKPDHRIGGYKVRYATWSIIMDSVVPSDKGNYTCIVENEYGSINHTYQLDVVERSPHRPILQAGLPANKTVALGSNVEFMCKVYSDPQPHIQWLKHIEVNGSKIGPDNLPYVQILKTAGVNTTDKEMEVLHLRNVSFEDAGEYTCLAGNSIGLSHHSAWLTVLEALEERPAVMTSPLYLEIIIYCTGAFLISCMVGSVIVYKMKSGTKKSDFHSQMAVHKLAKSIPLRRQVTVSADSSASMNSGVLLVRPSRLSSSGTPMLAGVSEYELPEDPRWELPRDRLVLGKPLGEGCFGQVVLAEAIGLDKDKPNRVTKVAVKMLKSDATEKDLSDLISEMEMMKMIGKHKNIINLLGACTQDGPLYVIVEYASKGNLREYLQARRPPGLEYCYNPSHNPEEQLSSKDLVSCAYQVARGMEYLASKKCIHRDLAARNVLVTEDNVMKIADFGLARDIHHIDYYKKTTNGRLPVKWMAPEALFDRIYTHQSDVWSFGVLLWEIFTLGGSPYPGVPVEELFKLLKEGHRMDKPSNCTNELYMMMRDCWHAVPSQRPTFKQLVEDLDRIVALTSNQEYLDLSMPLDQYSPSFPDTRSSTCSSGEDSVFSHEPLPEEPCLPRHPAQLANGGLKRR
Chain of recombinant human FGFR1 catalytic domain (amino acids 308-731) (P11362 other isoform, or with tags, fused parts or gaps): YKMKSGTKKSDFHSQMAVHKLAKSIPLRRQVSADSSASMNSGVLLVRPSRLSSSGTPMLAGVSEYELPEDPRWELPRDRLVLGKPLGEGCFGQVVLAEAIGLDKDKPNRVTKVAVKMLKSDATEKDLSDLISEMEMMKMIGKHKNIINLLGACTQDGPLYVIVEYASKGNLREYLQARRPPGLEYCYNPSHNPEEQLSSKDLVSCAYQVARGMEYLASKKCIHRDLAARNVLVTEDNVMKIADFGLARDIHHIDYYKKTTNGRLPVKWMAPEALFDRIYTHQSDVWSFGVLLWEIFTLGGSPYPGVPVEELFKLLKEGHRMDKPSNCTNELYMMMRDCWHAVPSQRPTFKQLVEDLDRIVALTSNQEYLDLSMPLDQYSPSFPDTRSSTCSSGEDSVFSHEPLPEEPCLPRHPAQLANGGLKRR
Chain of recombinant human FGFR3 (amino acids R397-T806) (P22607 397-806): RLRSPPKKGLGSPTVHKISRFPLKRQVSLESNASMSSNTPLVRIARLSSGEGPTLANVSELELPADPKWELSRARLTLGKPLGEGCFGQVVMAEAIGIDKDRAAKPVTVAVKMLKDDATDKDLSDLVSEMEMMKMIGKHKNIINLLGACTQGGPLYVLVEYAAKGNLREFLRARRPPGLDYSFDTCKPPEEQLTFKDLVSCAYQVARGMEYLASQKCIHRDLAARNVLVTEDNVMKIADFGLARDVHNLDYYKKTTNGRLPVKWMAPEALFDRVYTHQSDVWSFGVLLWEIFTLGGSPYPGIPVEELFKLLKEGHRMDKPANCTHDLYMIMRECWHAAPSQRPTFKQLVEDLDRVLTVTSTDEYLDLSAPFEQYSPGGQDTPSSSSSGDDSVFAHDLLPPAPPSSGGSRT
Chain of phosphorylated FGFR3 (SEQ ID NO: 5, amino acids 449 to 759) (P22607 449-759): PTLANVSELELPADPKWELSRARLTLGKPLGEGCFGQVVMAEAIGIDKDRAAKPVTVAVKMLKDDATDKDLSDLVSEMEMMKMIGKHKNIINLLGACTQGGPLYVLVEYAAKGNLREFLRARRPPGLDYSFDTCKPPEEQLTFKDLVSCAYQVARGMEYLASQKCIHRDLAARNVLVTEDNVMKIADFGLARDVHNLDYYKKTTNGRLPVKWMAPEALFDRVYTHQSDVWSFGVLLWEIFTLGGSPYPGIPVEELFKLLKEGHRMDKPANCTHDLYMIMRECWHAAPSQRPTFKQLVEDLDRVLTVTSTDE
Chain of dephosphorylated FGFR1 (SEQ ID NO: 1, amino acids 458 to 765) (P11362 458-765): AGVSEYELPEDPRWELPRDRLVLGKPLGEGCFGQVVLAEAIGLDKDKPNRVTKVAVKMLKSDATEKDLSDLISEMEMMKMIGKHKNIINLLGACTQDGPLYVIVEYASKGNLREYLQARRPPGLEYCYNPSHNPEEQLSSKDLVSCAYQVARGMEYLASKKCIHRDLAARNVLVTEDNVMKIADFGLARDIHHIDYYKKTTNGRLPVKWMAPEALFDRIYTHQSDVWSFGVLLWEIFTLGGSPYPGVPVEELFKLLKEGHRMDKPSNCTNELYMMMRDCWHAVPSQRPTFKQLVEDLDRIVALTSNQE
Chain of FGFR1 (SEQ ID NO: 1, amino acids 458-765) (P11362 458-765): as above

pIC50 [1] | pIC50 [2] | pIC50 [3] | pIC50 [4] | pIC50 [5] | FGFR1 Enz kobs [6] [min⁻¹] | pIC50 [7] | pIC50 [8] | pIC50 [9] | Structure (SMILES)
6.37 | 6.11 | 6.92 | – | – | – | – | – | – | COc1cc(-c2cnn(C3CCN(C(=O)C4CN(C(=O)/C=C/CF)C4)CC3)c2)cn2ncc(C#N)c12 [Example 142]
7.47 | – | – | – | – | – | – | – | – | COc1cc(-c2cnn(C3CCN(C(=O)/C=C/CN(C)C)CC3)c2)cn2ncc(C#N)c12 [Example 144, (E)-6-(1-(1-(4-(dimethylamino)benoyl)piperidin-4-yl)-1H-pyrazol-4-yl)-4-methoxypyrazol14 5o[1,5-a]pyridine-3-carbonitrile]
– | – | – | 5.92 | 5.93 | 0.0497 | 7.74 | 6.87 | 7.82 | COc1cc(-c2cnn(C3CCN(C(=O)C4CN(C(=O)C#CCN(C)C)C4)CC3)c2)cn2ncc(C#N)c12 [Example 176, 6-(1-(1-(1-(4-(dimethylamino)but-2-ynoyl)azetidine-3-carbonyl)piperidin-4-yl)-1H-pyrazol-4-yl)-4-methoxypyrazolo[1,5-a]pyridine-3-carbonitrile]
